Measured values reported in patent US9409876B2, “Bradykinin receptor antagonists and pharmaceutical compositions containing them” (DOMPE' FARMACEUTICI S.P.A., priority 2013, dated 2016).

The compounds below were run against T1, BKB1 receptors (Homo sapiens, UniProt P46663) (assay: Calcium Mobilization Assay (FLIPR), IMR-90 cells, BKB1). Conditions: IL-1 induced IMR-90 cells, agonist desArg10-kallidin (DAKD).
T1 construct: Human (IMR-90) lung fibroblast cells expressing native BKB1 receptors; endogenous in cells; host or cells: IMR-90 human lung fibroblasts, treated with human IL-1 to up-regulate BKB1
T1 sequence (P46663 1-353): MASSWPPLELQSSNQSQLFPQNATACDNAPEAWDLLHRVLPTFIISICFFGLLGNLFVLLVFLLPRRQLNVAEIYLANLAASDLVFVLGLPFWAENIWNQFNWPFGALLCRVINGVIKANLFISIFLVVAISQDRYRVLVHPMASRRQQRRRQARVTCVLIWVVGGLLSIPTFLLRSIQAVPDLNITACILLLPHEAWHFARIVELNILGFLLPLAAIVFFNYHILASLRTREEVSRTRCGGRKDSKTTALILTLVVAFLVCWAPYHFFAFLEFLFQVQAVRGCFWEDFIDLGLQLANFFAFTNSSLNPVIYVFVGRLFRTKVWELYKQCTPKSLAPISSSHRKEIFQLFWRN
Type: cell-based
Experimental: Calcium Mobilization Assay (FLIPR)—Human (IMR-90) lung fibroblast cells expressing native BKB1 receptors were harvested by trypsinization and seeded into black wall/clear bottom 96-well plates (Costar 3904; Corning Life Sciences, Acton, Mass.) at approximately 13,000 cells/well. After 1 day incubation, cells were treated with human IL-1 (0.35 ng/ml) in 10% FBS/MEM for 2 h to up-regulate BKB1 receptors. Induced cells were loaded with fluorescent calcium indicator by incubation with 2.3 µM Fluo-4/acetoxymethyl ester (Invitrogen) at 37° C. for 1.5 h in the presence of an anion transport inhibitor (2.5 mM probenecid in 1% FBS/MEM). Extracellular dye was removed by washing with assay buffer (2.5 mM probenecid, 0.1% BSA in 20 mM HEPES/HBSS without bicarbonate or phenol red, pH 7.5) and cell plates were kept in the dark until used. Test compounds were assayed at eight concentrations in triplicate.
For `Cc1ccc(C(C(=O)NCC2CCCO2)N(Cc2cccc(C)c2)C(=O)CN(C)C)cc1` (centres unmarked) [35 (mix), 2-(dimethylamino)-N-(3-methylbenzyl)-N-{1-(4-methylphenyl)-2-oxo-2-[(tetrahydrofuran-2-ylmethyl)amino]ethyl}acetamide], the IC50 was 1.7 µM. For `Cc1ccc(C(C(=O)NCC2CCCO2)N(CC2CCCCC2)C(=O)Cc2c[nH]cn2)cc1` (centres unmarked) [36 (mix), N-(cyclohexylmethyl)-2-(1H-imidazol-4-yl)-N-{1-(4-methylphenyl)-2-oxo-2-[(tetrahydrofuran-2-ylmethyl)amino]ethyl}acetamide], the IC50 was 13.8 µM. In the case of `Cc1ccc(C(C(=O)NCC2CCCO2)N(CC2CCCCC2)C(=O)Cc2ccccc2)cc1` (centres unmarked) [37 (mix), N-(cyclohexylmethyl)-2-phenyl-N-{1-(4-methylphenyl)-2-oxo-2-[(tetrahydrofuran-2-ylmethyl)amino]ethyl}acetamide], the IC50 is reported as 6.2 µM. Work on `Cc1ccc(C(C(=O)NCC2CCCO2)N(Cc2cccc(C)c2)C(=O)C2CC2C)cc1` (centres unmarked) [38 (mix), 2-methyl-N-(3-methylbenzyl)-N-{1-(4-methylphenyl)-2-oxo-2-[(tetrahydrofuran-2-ylmethyl)amino]ethyl}cyclopropanecarboxamide] yielded an IC50 of 12.7 µM. `Cc1ccc(C(C(=O)NCC2CCCO2)N(Cc2csc3ccccc23)C(=O)CN(C)C)cc1` (centres unmarked) [39 (mix), N-(1-benzothiophen-3-ylmethyl)-2-(dimethylamino)-N-{1-(4-methylphenyl)-2-oxo-2-[(tetrahydrofuran-2-ylmethyl)amino]ethyl}acetamide] was tested, and the IC50 was 1.2 µM. `Cc1ccc(C(C(=O)NCC2CCCO2)N(CC2CCCCC2)C(=O)Cc2cccc(C)c2)cc1` (centres unmarked) [40 (mix), N-(cyclohexylmethyl)-2-(3-methylphenyl)-N-{1-(4-methylphenyl)-2-oxo-2-[(tetrahydrofuran-2-ylmethyl)amino]ethyl}acetamide] was tested, and the IC50 was 5.1 µM. Compound `CCC(CC)CN(C(=O)Cc1ccccc1C)C(C(=O)NCC1CCCO1)c1ccc(C)cc1` (centres unmarked) [41 (mix), N-(2-ethylbutyl)-2-(2-methylphenyl)-N-{1-(4-methylphenyl)-2-oxo-2-[(tetrahydrofuran-2-ylmethyl)amino]ethyl}acetamide] has an IC50 of 4.3 µM. `CCC(CC)CN(C(=O)Cc1ccc(F)cc1)C(C(=O)NCC1CCCO1)c1ccc(C)cc1` (centres unmarked) [42 (mix), N-(2-ethylbutyl)-2-(4-fluorophenyl)-N-{1-(4-methylphenyl)-2-oxo-2-[(tetrahydrofuran-2-ylmethyl)amino]ethyl}acetamide] was tested, and the IC50 was 9.6 µM. In the case of `Cc1ccc(C(C(=O)NCC2CCCO2)N(Cc2cccn2C)C(=O)CN(C)C)cc1` (centres unmarked) [43 (mix), 2-(dimethylamino)-N-[(1-methyl-1H-pyrrol-2-yl)methyl]-N-{1-(4-methylphenyl)-2-oxo-2-[(tetrahydrofuran-2-ylmethyl)amino]ethyl}acetamide], the IC50 is reported as 9.5 µM. In the case of `Cc1ccc(C(C(=O)NCC2CCCO2)N(CC2CCCC2)C(=O)Cc2ccccc2C)cc1` (centres unmarked) [44 (mix), N-(cyclopentylmethyl)-2-(2-methylphenyl)-N-{1-(4-methylphenyl)-2-oxo-2-[(tetrahydrofuran-2-ylmethyl)amino]ethyl}acetamide], the IC50 is reported as 12.6 µM. `Cc1ccc(C(C(=O)NCC2CCCO2)N(CC2CCCC2)C(=O)Cc2cccc(C)c2)cc1` (centres unmarked) [45 (mix), N-(cyclopentylmethyl)-2-(3-methylphenyl)-N-{1-(4-methylphenyl)-2-oxo-2-[(tetrahydrofuran-2-ylmethyl)amino]ethyl}acetamide] was tested, and the IC50 was 13.1 µM. For `Cc1ccc(C(C(=O)NCC2CCCO2)N(Cc2cccnc2)C(=O)Cc2ccccc2C)cc1` (centres unmarked) [46 (mix), 2-(2-methylphenyl)-N-(pyridin-3-ylmethyl)-N-{1-(4-methylphenyl)-2-oxo-2-[(tetrahydrofuran-2-ylmethyl)amino]ethyl}acetamide], the IC50 was 11.7 µM. `Cc1ccc(C(C(=O)NCC2CCCO2)N(CC2CCCC2)C(=O)Cc2ccccc2)cc1` (centres unmarked) [47 (mix), N-(cyclopentylmethyl)-N-{1-(4-methylphenyl)-2-oxo-2-[(tetrahydrofuran-2-yl)methylamino]ethyl}2-phenylacetamide] showed an IC50 of 9.8 µM. `Cc1ccc(C(C(=O)NCC2CCCO2)N(CC2CCCCC2)C(=O)CC2CCCC2)cc1` (centres unmarked) [48 (mix), N-(cyclohexylmethyl)-2-cyclopentyl-N-{1-(4-methylphenyl)-2-oxo-2-[(tetrahydrofuran-2-ylmethyl)amino]ethyl}acetamide] was tested, and the IC50 was 15 µM. In the case of `Cc1ccc(C(C(=O)NCC2CCCO2)N(CC(C)C)C(=O)Cc2c[nH]cn2)cc1` (centres unmarked) [49 (mix), 2-(1H-imidazol-4-yl)-N-(2-methylpropyl)-N-{1-(4-methylphenyl)-2-oxo-2-[(tetrahydrofuran-2-ylmethyl)amino]ethyl}acetamide], the IC50 is reported as 14.7 µM. `CCC(CC)CN(C(=O)C1CCCCC1)C(C(=O)NCC1CCCO1)c1ccc(C)cc1` (centres unmarked) [50 (mix), N-(2-ethylbutyl)-N-{1-(4-methylphenyl)-2-oxo-2-[(tetrahydrofuran-2-ylmethyl)amino]ethyl}cyclohexanecarboxamide] gave an IC50 of 14.2 µM. Work on `Cc1ccc(C(C(=O)NCC2CCCO2)N(CC2CCCC2)C(=O)CC2CCCC2)cc1` (centres unmarked) [51 (mix), 2-cyclopentyl-N-cyclopentylmethyl-N-{1-(4-methylphenyl)-2-oxo-2-[(tetrahydrofuran-2-ylmethyl)amino]ethyl}acetamide] yielded an IC50 of 13 µM. In the case of `COc1ccccc1CN(C(=O)CC(C)C)C(C(=O)NCC1CCCO1)c1ccc(C2CC2)cc1` (centres unmarked) [52 (mix), N-(2-methoxybenzyl]-N-[1-(4-cyclopropylphenyl)-2-oxo-2-[(tetrahydrofuran-2-yl)methylamino]ethyl)-3-methylbutanamide], the IC50 is reported as 0.063 µM. In the case of `COc1ccccc1CN(C(=O)Cn1nnc2ccccc21)C(C(=O)NCC1CCCO1)c1ccc(C(F)(F)F)cc1` (centres unmarked) [53 (mix), 2-(1H-benzotriazol-1-yl)-N-(2-methoxybenzyl)-N-{1-(4-trifluoromethylphenyl)-2-oxo-2-[(tetrahydrofuran-2-ylmethyl)amino]ethyl}acetamide], the IC50 is reported as 0.297 µM. In the case of `COc1ccccc1CN(C(=O)CC(C)C)C(C(=O)NCC1CCCO1)c1ccc(C(F)(F)F)cc1` (centres unmarked) [54 (mix)], the IC50 is reported as 0.528 µM. With `COc1ccccc1CN(C(=O)Cn1nnc2ccccc21)[C@@H](C(=O)NC[C@H]1CCCO1)c1ccc(C)cc1` [Compound 1 (R,R), 2-(1H-benzotriazol-1-yl)-N-(2-methoxybenzyl)-N-{[(1R)-1-(4-methylphenyl)]-2-oxo-2-[(2R)-(tetrahydrofuran-2-ylmethyl)amino]ethyl}acetamide] the IC50 was 0.043 µM. `COc1ccccc1CN(C(=O)c1coc(C)n1)[C@@H](C(=O)NC[C@H]1CCCO1)c1ccc(C)cc1` [Compound 2 (R,R)] gave an IC50 of 0.063 µM. In the case of `COc1ccccc1CN(C(=O)Cc1cccc(F)c1F)[C@@H](C(=O)NC[C@H]1CCCO1)c1ccc(C)cc1` [Compound 3 (R,R), 2-(2,3-difluorophenyl)-N-(2-methoxybenzyl)-N-{(1R)-1-(4-methylphenyl)-2-oxo-2-[(2R)-(tetrahydrofuran-2-ylmethyl)amino]ethyl}acetamide], the IC50 is reported as 0.54 µM. `COc1ccccc1CN(C(=O)c1ccco1)[C@@H](C(=O)NC[C@H]1CCCO1)c1ccc(C)cc1` [Compound 4 (R,R), N-(2-methoxybenzyl)-N-[(1R)-1-(4-methylphenyl)-2-oxo-2-{[(2R)tetrahydrofuran-2-ylmethyl]amino}ethyl]furan-2-carboxamide] gave an IC50 of 0.358 µM. `COc1ccccc1CN(C(=O)Cc1c(F)cccc1F)[C@@H](C(=O)NC[C@H]1CCCO1)c1ccc(C)cc1` [Compound 6 (R,R), 2-(2,6-difluorophenyl)-N-(2-methoxybenzyl)-N-{(1R)-1-(4-methylphenyl)-2-oxo-2-[(2R)-(tetrahydrofuran-2-ylmethyl)amino]ethyl}acetamide] was tested, and the IC50 was 0.456 µM. `COc1ccccc1CN(C(=O)Cc1ccccc1)[C@@H](C(=O)NC[C@H]1CCCO1)c1ccc(C)cc1` [Compound 7 (R,R), N-(2-methoxybenzyl)-N-{(1R)-1-(4-methylphenyl)-2-oxo-2-[(2R)-(tetrahydrofuran-2-ylmethyl)amino]ethyl}-2-phenylacetamide] gave an IC50 of 0.2 µM. `COc1ccccc1CN(C(=O)Cn1ccnn1)[C@@H](C(=O)NC[C@H]1CCCO1)c1ccc(C)cc1` [Compound 30 (R,R), N-(2-methoxybenzyl)-N-{(1R)-1-(4-methylphenyl)-2-oxo-2-[(2R)-(tetrahydrofuran-2-ylmethyl)amino]ethyl}-2-(1H-1,2,3-triazol-1-yl)acetamide] was tested, and the IC50 was 0.011 µM. For “N-(2-methoxybenzyl)-N-{(1R)-1-(4-methylphenyl)-2-oxo-2-[(2R)-(pyrrolidin-2-ylmethyl)amino]ethyl}-2-(1H-1,2,3-triazol-1-yl)acetate [Compound 55 (R,R)]”, the IC50 was 0.0757 µM. With “N-(2-methoxybenzyl)-N-{(1S)-1-(4-methylphenyl)-2-oxo-2-[(2R)-(pyrrolidin-2-ylmethyl)amino]ethyl}-2-(1H-1,2,3-triazol-1-yl)acetate [55 (S,R)]” the IC50 was 0.12 µM.
